According to patent US20020137929A1, “1 - (3-heterocyclylphenyl) isothiourea, -isourea, -guanidine and -amidine herbicidal agents” (Intellectual Property Department, BASF Aktiengesellschaft, priority 1998, published 2002):

Experiments:
AMBEL (Ragweed, Common) [1] = test: Postemergence herbicidal evaluation; type: in vivo, Ambrosia artemisifolia; conditions: postemergence
Method in brief: (§1)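 First, seedlings were raised for around two weeks. Next, test material in 50/50 acetone/water containing 0.5% TWEEN 20 was sprayed through a nozzle at 40 psi, equivalent to about 0.0156–0.500 kg/ha. Finally, after 4–5 weeks in the greenhouse, plants were rated 0–9.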

ZEAMX (Corn, Field) = test: Postemergence herbicidal evaluation; type: in vivo, Zea mays; conditions: postemergence
Method in brief: as §1

[2] = tested on: GLXMAW (Soybean, Williams); test: Postemergence herbicidal evaluation; type: in vivo, Glycine max, (L.) Merr. cv Williams; conditions: postemergence
Method in brief: as §1

[3] = tested on: CHEAL (Lambsquarters, Common); test: Postemergence herbicidal evaluation; type: in vivo, Chenopodium album; conditions: postemergence
Method in brief: as §1

CYPSE (Flatsedge) [4] = test: Postemergence weed control under flooded paddy conditions; type: in vivo, Cyperus serotinus; conditions: postemergence weeds, rated 3 to 4 weeks after treatment
Method in brief: (§2)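 Flood-water application, about 0.0313–0.500 kg/ha a.i. in aqueous/acetone 50/50 v/v; water depth 1.5–3 cm throughout. Weeds 3–5 cm, rice 1.5–2.5 leaf. Greenhouse; 0–9 visual rating vs control at 3–4 wk.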

CYPIR (Rice Flatsedge) = test: as above; type: in vivo, Cyperus iria; conditions: postemergence weeds, rated 3 to 4 weeks after treatment
Method in brief: as §2

CYPSE (Flatsedge) [5] = test: Preemergence weed control under flooded paddy conditions; type: in vivo, Cyperus serotinus; conditions: rated 3-4 weeks after treatment
Method in brief: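 Silt loam, seeds in top 0.5 cm; flood held 1.5-3 cm; test cpd as acetone/water 50/50 into flood water, ~0.0313-0.500 kg/ha a.i.; greenhouse 3-4 wk; visual 0-9 score vs control.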

ABUTH (Velvetleaf) = test: Postemergence herbicidal evaluation; type: in vivo, Abutilon theophrasti; conditions: postemergence
Method in brief: as §1

ORYSAT (Rice, Tebonnet) = test: Postemergence herbicidal evaluation; type: in vivo, Oryza sativa, (L.) Tebonnet; conditions: postemergence
Method in brief: as §1

AMBEL (Ragweed, Common) [6] = test: Preemergence herbicidal evaluation; type: in vivo, Ambrosia artemisifolia; conditions: rated 4-5 weeks after treatment; for AMBEL rating: preemergence, 0-9 scale
Method in brief: (§3)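 Visual 0-9 rating vs control (stand, vigor, malformation, size, chlorosis, overall appearance), scored 4-5 wk after spraying. Seeded soil cups were treated preemergence with compound in aqueous acetone, ~0.0156-0.500 kg/ha equivalent.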

CASOB (Sicklepod) = test: Preemergence herbicidal evaluation; type: in vivo, Cassia obtusifolia; conditions: rated 4-5 weeks after treatment; for CASOB rating: preemergence, 0-9 scale
Method in brief: as §3

[7] = tested on: CHEAL (Lambsquarters, Common); test: Preemergence herbicidal evaluation; type: in vivo, Chenopodium album; conditions: rated 4-5 weeks after treatment; for CHEAL rating: preemergence, 0-9 scale
Method in brief: as §3

GALAP (Galium) = test: Preemergence herbicidal evaluation; type: in vivo, Galium aparine; conditions: rated 4-5 weeks after treatment; for GALAP rating: preemergence, 0-9 scale
Method in brief: as §3

ECHCG (Barnyardgrass) = test: Postemergence herbicidal evaluation; type: in vivo, Echinochloa crus-galli; conditions: postemergence
Method in brief: as §1

Structure (SMILES): CC(C)C[C@@H](C(=O)O)N1C(=O)CSC1=Nc1cc(-n2c(=O)cc(C(F)(F)F)n(C)c2=O)c(F)cc1Cl [Compound 71, α-Isobutyl-2-{{2-chloro-5-[3,6-dihydro-3-methyl-2,6-dioxo-4-(trifluoromethyl)-1(2H)-pyrimidinyl]-4-fluorophenyl}imino}-4-oxo-3-thiazolidineacetic acid, L-]
- AMBEL herbicidal rating (AMBEL (Ragweed, Common) [1]; rate 0.0158 kg/ha): 9.0
- AMBEL herbicidal rating (AMBEL (Ragweed, Common) [1]; rate 0.0315 kg/ha): 9.0
- AMBEL herbicidal rating (AMBEL (Ragweed, Common) [1]; rate 0.0630 kg/ha): 9.0
- ZEAMX herbicidal rating (ZEAMX (Corn, Field); rate 0.0158 kg/ha): 5.0
- ZEAMX herbicidal rating (ZEAMX (Corn, Field); rate 0.0315 kg/ha): 5.0
- ZEAMX herbicidal rating (ZEAMX (Corn, Field); rate 0.0630 kg/ha): 7.0
- GLXMAW herbicidal rating ([2]; rate 0.0158 kg/ha): 6.5
- GLXMAW herbicidal rating ([2]; rate 0.0315 kg/ha): 7.5
- GLXMAW herbicidal rating ([2]; rate 0.0630 kg/ha): 7.5
- CHEAL herbicidal rating ([3]; rate 0.0158 kg/ha): 6.0
- CHEAL herbicidal rating ([3]; rate 0.0315 kg/ha): 7.0
- Herbicidal rating CYPSE (CYPSE (Flatsedge) [4]; Rate 0.1250 kg/ha): 3.0
- Herbicidal rating CYPSE (CYPSE (Flatsedge) [4]; Rate 0.2500 kg/ha): 3.0
- Herbicidal rating CYPIR (CYPIR (Rice Flatsedge); Rate 0.1250 kg/ha): 3.0
- Herbicidal rating CYPIR (CYPIR (Rice Flatsedge); Rate 0.2500 kg/ha): 7.0
- CYPSE herbicidal effect rating (CYPSE (Flatsedge) [5]; 0.1250 kg/ha): 3.0
- CYPSE herbicidal effect rating (CYPSE (Flatsedge) [5]; 0.2500 kg/ha): 3.0
- ABUTH herbicidal rating (ABUTH (Velvetleaf); rate 0.0158 kg/ha): 9.0
- ABUTH herbicidal rating (ABUTH (Velvetleaf); rate 0.0315 kg/ha): 9.0
- ABUTH herbicidal rating (ABUTH (Velvetleaf); rate 0.0630 kg/ha): 9.0
- ORYSAT herbicidal rating (ORYSAT (Rice, Tebonnet); rate 0.0158 kg/ha): 3.0
- ORYSAT herbicidal rating (ORYSAT (Rice, Tebonnet); rate 0.0315 kg/ha): 3.5
- ORYSAT herbicidal rating (ORYSAT (Rice, Tebonnet); rate 0.0630 kg/ha): 4.5
- Preemergence herbicidal rating AMBEL (AMBEL (Ragweed, Common) [6]; rate 0.0156 kg/ha): 1.0
- Preemergence herbicidal rating AMBEL (AMBEL (Ragweed, Common) [6]; rate 0.0313 kg/ha): 2.0
- Preemergence herbicidal rating AMBEL (AMBEL (Ragweed, Common) [6]; rate 0.0625 kg/ha): 7.0
- Preemergence herbicidal rating AMBEL (AMBEL (Ragweed, Common) [6]; rate 0.1250 kg/ha): 9.0
- Preemergence herbicidal rating AMBEL (AMBEL (Ragweed, Common) [6]; rate 0.2500 kg/ha): 9.0
- Preemergence herbicidal rating CASOB (CASOB (Sicklepod); rate 0.0156 kg/ha): 0.0
- Preemergence herbicidal rating CASOB (CASOB (Sicklepod); rate 0.0313 kg/ha): 0.0
- Preemergence herbicidal rating CASOB (CASOB (Sicklepod); rate 0.0625 kg/ha): 0.0
- Preemergence herbicidal rating CASOB (CASOB (Sicklepod); rate 0.1250 kg/ha): 7.0
- Preemergence herbicidal rating CASOB (CASOB (Sicklepod); rate 0.2500 kg/ha): 9.0
- Preemergence herbicidal rating CHEAL ([7]; rate 0.0156 kg/ha): 3.0
- Preemergence herbicidal rating CHEAL ([7]; rate 0.0313 kg/ha): 9.0
- Preemergence herbicidal rating CHEAL ([7]; rate 0.0625 kg/ha): 9.0
- Preemergence herbicidal rating CHEAL ([7]; rate 0.1250 kg/ha): 9.0
- Preemergence herbicidal rating CHEAL ([7]; rate 0.2500 kg/ha): 9.0
- Preemergence herbicidal rating GALAP (GALAP (Galium); rate 0.0156 kg/ha): 0.0
- Preemergence herbicidal rating GALAP (GALAP (Galium); rate 0.0313 kg/ha): 0.0
- Preemergence herbicidal rating GALAP (GALAP (Galium); rate 0.0625 kg/ha): 0.0
- Preemergence herbicidal rating GALAP (GALAP (Galium); rate 0.1250 kg/ha): 9.0
- Preemergence herbicidal rating GALAP (GALAP (Galium); rate 0.2500 kg/ha): 6.0
- ECHCG herbicidal rating (ECHCG (Barnyardgrass); rate 0.0158 kg/ha): 4.0
- ECHCG herbicidal rating (ECHCG (Barnyardgrass); rate 0.0315 kg/ha): 4.0
- ECHCG herbicidal rating (ECHCG (Barnyardgrass); rate 0.0630 kg/ha): 4.0

Structure (SMILES): C#CCOC(=O)CC1SC(=Nc2cc(-n3c(=O)cc(C(F)(F)F)n(C)c3=O)c(F)cc2Cl)N(C)C1=O (centres unmarked) [Compound 90, 2-Propynyl 2-{{2-chloro-5-[3,6-dihydro-3-methyl-2,6-dioxo-4-(trifluoromethyl)-1(2H)-pyrimidinyl]-4-fluorophenyl}imino}-3-methyl-4-oxo-5-thiazolidineacetate]
- AMBEL herbicidal rating (AMBEL (Ragweed, Common) [1]; rate 0.0158 kg/ha): 9.0
- AMBEL herbicidal rating (AMBEL (Ragweed, Common) [1]; rate 0.0315 kg/ha): 9.0
- AMBEL herbicidal rating (AMBEL (Ragweed, Common) [1]; rate 0.0630 kg/ha): 9.0
- ZEAMX herbicidal rating (ZEAMX (Corn, Field); rate 0.0158 kg/ha): 8.0
- ZEAMX herbicidal rating (ZEAMX (Corn, Field); rate 0.0315 kg/ha): 8.5
- ZEAMX herbicidal rating (ZEAMX (Corn, Field); rate 0.0630 kg/ha): 9.0
- GLXMAW herbicidal rating ([2]; rate 0.0158 kg/ha): 9.0
- GLXMAW herbicidal rating ([2]; rate 0.0315 kg/ha): 9.0
- GLXMAW herbicidal rating ([2]; rate 0.0630 kg/ha): 9.0
- CHEAL herbicidal rating ([3]; rate 0.0158 kg/ha): 5.0
- CHEAL herbicidal rating ([3]; rate 0.0315 kg/ha): 7.0
- CHEAL herbicidal rating ([3]; rate 0.0630 kg/ha): 9.0
- Herbicidal rating CYPSE (CYPSE (Flatsedge) [4]; Rate 0.0313 kg/ha): 0.0
- Herbicidal rating CYPSE (CYPSE (Flatsedge) [4]; Rate 0.0625 kg/ha): 0.0
- Herbicidal rating CYPSE (CYPSE (Flatsedge) [4]; Rate 0.1250 kg/ha): 0.0
- Herbicidal rating CYPSE (CYPSE (Flatsedge) [4]; Rate 0.2500 kg/ha): 3.0
- Herbicidal rating CYPIR (CYPIR (Rice Flatsedge); Rate 0.0313 kg/ha): 0.0
- Herbicidal rating CYPIR (CYPIR (Rice Flatsedge); Rate 0.0625 kg/ha): 0.0
- Herbicidal rating CYPIR (CYPIR (Rice Flatsedge); Rate 0.1250 kg/ha): 1.0
- Herbicidal rating CYPIR (CYPIR (Rice Flatsedge); Rate 0.2500 kg/ha): 3.0
- CYPSE herbicidal effect rating (CYPSE (Flatsedge) [5]; 0.0313 kg/ha): 0.0
- CYPSE herbicidal effect rating (CYPSE (Flatsedge) [5]; 0.0625 kg/ha): 0.0
- CYPSE herbicidal effect rating (CYPSE (Flatsedge) [5]; 0.1250 kg/ha): 0.0
- CYPSE herbicidal effect rating (CYPSE (Flatsedge) [5]; 0.2500 kg/ha): 3.0
- ABUTH herbicidal rating (ABUTH (Velvetleaf); rate 0.0158 kg/ha): 9.0
- ABUTH herbicidal rating (ABUTH (Velvetleaf); rate 0.0315 kg/ha): 9.0
- ABUTH herbicidal rating (ABUTH (Velvetleaf); rate 0.0630 kg/ha): 9.0
- ORYSAT herbicidal rating (ORYSAT (Rice, Tebonnet); rate 0.0158 kg/ha): 4.0
- ORYSAT herbicidal rating (ORYSAT (Rice, Tebonnet); rate 0.0315 kg/ha): 6.5
- ORYSAT herbicidal rating (ORYSAT (Rice, Tebonnet); rate 0.0630 kg/ha): 6.5
- AMBEL rating (AMBEL (Ragweed, Common) [6]; 0.0313 kg/ha): 0.0
- AMBEL rating (AMBEL (Ragweed, Common) [6]; 0.0625 kg/ha): 3.0
- AMBEL rating (AMBEL (Ragweed, Common) [6]; 0.1250 kg/ha): 9.0
- AMBEL rating (AMBEL (Ragweed, Common) [6]; 0.2500 kg/ha): 9.0
- CASOB rating (CASOB (Sicklepod); 0.0313 kg/ha): 3.0
- CASOB rating (CASOB (Sicklepod); 0.0625 kg/ha): 9.0
- CASOB rating (CASOB (Sicklepod); 0.1250 kg/ha): 9.0
- CASOB rating (CASOB (Sicklepod); 0.2500 kg/ha): 9.0
- CHEAL rating ([7]; 0.0313 kg/ha): 7.0
- CHEAL rating ([7]; 0.0625 kg/ha): 9.0
- CHEAL rating ([7]; 0.1250 kg/ha): 9.0
- CHEAL rating ([7]; 0.2500 kg/ha): 9.0
- GALAP rating (GALAP (Galium); 0.0313 kg/ha): 0.0
- GALAP rating (GALAP (Galium); 0.0625 kg/ha): 0.0
- GALAP rating (GALAP (Galium); 0.1250 kg/ha): 3.0
- GALAP rating (GALAP (Galium); 0.2500 kg/ha): 7.0
- ECHCG herbicidal rating (ECHCG (Barnyardgrass); rate 0.0158 kg/ha): 3.0
- ECHCG herbicidal rating (ECHCG (Barnyardgrass); rate 0.0315 kg/ha): 5.0
- ECHCG herbicidal rating (ECHCG (Barnyardgrass); rate 0.0630 kg/ha): 9.0
